As a reminder, the IC50 is the concentration that inhibits the measured activity by half. Lower therefore signals higher potency.

For the assay, the target named is GST tagged IRAK4 (Homo sapiens (Human), UniProt Q9NWZ3). As to the kind of experiment: IRAK4 Kinase Assay (IMAP fluorescence polarization). The format is biochemical. The note with it: 0.5 nM GST tagged IRAK4, 100 μM ATP, 30 minutes at 25° C. The method, then: The kinase activity of IRAK4 is determined by its ability to catalyze the phosphorylation of a fluorescent polypeptide substrate. The extent of phosphorylation is measured using the IMAP technology (Molecular Devices) where the phosphorylated fluorescent substrate binds to the large M(III)-based nanoparticles which reduces the rotational speed of the substrate and thus increases its fluorescent polarization (FP).
Sequence of GST tagged IRAK4 (Q9NWZ3 whole entry): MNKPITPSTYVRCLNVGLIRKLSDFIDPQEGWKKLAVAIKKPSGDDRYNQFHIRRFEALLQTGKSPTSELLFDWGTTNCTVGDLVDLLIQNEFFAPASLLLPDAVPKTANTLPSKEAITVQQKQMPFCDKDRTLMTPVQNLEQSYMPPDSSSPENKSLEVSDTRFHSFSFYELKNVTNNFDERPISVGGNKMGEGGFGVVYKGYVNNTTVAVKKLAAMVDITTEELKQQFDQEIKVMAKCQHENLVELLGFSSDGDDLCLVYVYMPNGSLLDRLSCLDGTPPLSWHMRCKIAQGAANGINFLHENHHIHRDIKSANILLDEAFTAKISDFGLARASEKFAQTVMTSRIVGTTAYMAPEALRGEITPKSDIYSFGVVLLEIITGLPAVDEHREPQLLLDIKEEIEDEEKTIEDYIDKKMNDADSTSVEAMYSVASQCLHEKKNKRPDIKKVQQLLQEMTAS
20 μL reaction mixture contains 10 mM TriHCl, pH 7.2, 0.5 nM GST tagged IRAK4 (SignalChem), 100 nM fluorescent peptide substrate (RP7030, Molecular Devices), 100 μM ATP, 1 mM DDT, 1 mM MgCl2, and 0.01% Tween 20. The reaction is initiated by the addition of ATP. After incubation for 30 minutes at 25° C., 60 μL of Progressive IMAP Reagent (Molecular Devices) is added to stop the reaction. Change in RP7030's FP is determined by a FP reader (Analyst HT, LJL BioSystems).
On the technique in general: In fluorescence polarisation assays a small probe gives low polarisation when free and higher when bound to something large.
The molecule `CN(C)[C@H]1CC[C@H](Nc2ncnc3ccc(OCC(N)=O)cc23)CC1` [Example 2-17, 2-[(4-{[trans-4-(dimethylamino)cyclohexyl]amino}quinazolin-6-yl)oxy]acetamide] came in with a concentration for half-maximal inhibition (IC50) of 0.052 µM.
The value for `N#Cc1ccc2ncnc(NC3CCC(N4CCOCC4)[C@@H]4C[C@H]34)c2c1` (stereo partly drawn) [Example 2-18, 4-{[(1S,6R)-5-(morpholin-4-yl)bicyclo[4.1.0]hept-2-yl]amino}quinazoline-6-carbonitrile] was 0.056 µM.
`N#Cc1ccc2ncnc(N[C@H]3CC[C@H](N4CCC4)CC3)c2c1` [Example 3-1, 4-{[Trans-4-(azetidin-1-yl)cyclohexyl]amino}quinazoline-6-carbonitrile] came in with an IC50 of 0.034 µM.
`N#Cc1ccc2ncnc(N[C@H]3CC[C@@H](N4CCC4)CC3)c2c1` [Example 3-6, 4-{[cis-4-(azetidin-1-yl)cyclohexyl]amino} quinazoline-6-carbonitrile]: the IC50 worked out at 0.768 µM.
For the molecule `CC1OCCN([C@H]2CC[C@H](Nc3ncnc4ccc(C#N)cc34)CC2)C1C` (stereo partly drawn) [Example 3-7, 4-{[trans-4-(2,3-dimethylmorpholin-4-yl)cyclohexyl]amino} quinazoline-6-carbonitrile], half-maximal inhibition (IC50) required 0.096 µM.
`CC1OCCN([C@H]2CC[C@@H](Nc3ncnc4ccc(C#N)cc34)CC2)C1C` (stereo partly drawn) [Example 3-8, 4-{[cis-4-(2,3-dimethylmorpholin-4-yl)cyclohexyl]amino} quinazoline-6-carbonitrile] displayed an IC50 of 2.55 µM.
The value for `C[C@@H]1CN([C@H]2CC[C@H](Nc3ncnc4ccc(C#N)cc34)CC2)C[C@H](C)O1` [Example 3-9, 4-({trans-4-[(2R,6S)-2,6-dimethylmorpholin-4-yl]cyclohexyl}amino) quinazoline-6-carbonitrile] was 0.005 µM.
The value for `CS(=O)(=O)C1CCN([C@H]2CC[C@H](Nc3ncnc4ccc(C#N)cc34)CC2)CC1` [Example 3-10, 4-({trans-4-[4-(methylsulfonyl)piperidin-1-yl]cyclohexyl}amino) quinazoline-6-carbonitrile] was 0.011 µM; that for `CS(=O)(=O)C1CCN([C@H]2CC[C@H](Nc3ncnc4ccc(C#N)cc34)CC2)C1` (stereo partly drawn) [Example 3-13, 4-({trans-4-[3-(methylsulfonyl)pyrrolidin-1-yl]cyclohexyl}amino) quinazoline-6-carbonitrile] was 0.014 µM.
`N#Cc1ccc2ncnc(N[C@H]3CC[C@H](N4C[C@@H]5C[C@H]4CO5)CC3)c2c1` [Example 3-18, 4-({trans-4-[(1S,4S)-2-oxa-5-azabicyclo[2.2.1]hept-5-yl]cyclohexyl}amino) quinazoline-6-carbonitrile] showed a concentration for half-maximal inhibition (IC50) of 0.114 µM.
In the case of `N#Cc1ccc2ncnc(N[C@H]3CC[C@H](N4CCC(F)CC4)CC3)c2c1` [Example 3-19, 4-{[trans-4-(4-fluoropiperidin-1-yl)cyclohexyl]amino} quinazoline-6-carbonitrile] it was 0.003 µM; in that of `CS(=O)(=O)N1CCN([C@H]2CC[C@H](Nc3ncnc4ccc(C#N)cc34)CC2)CC1` [Example 3-20, 4-({trans-4-[4-(methylsulfonyl)piperazin-1-yl]cyclohexyl}amino) quinazoline-6-carbonitrile], 0.008 µM; in that of `N#Cc1ccc2ncnc(N[C@H]3CC[C@H](NCC(F)(F)F)CC3)c2c1` [Example 3-21, 4-({trans-4-[(2,2,2-trifluoroethyl)amino]cyclo-hexyl}amino)quinazoline-6-carbonitrile], 0.512 µM.
The value for `COCCN[C@H]1CC[C@H](Nc2ncnc3ccc(C#N)cc23)CC1` [Example 3-22, 4-({trans-4-[(2-methoxyethyl)amino]cyclohexyl}amino)quinazoline-6-carbonitrile] was 0.016 µM.
The value for `N#Cc1ccc2ncnc(N[C@H]3CC[C@H](NC4CC4)CC3)c2c1` [Example 3-23, 4-{[trans-4-(cyclopropylamino)cyclo-hexyl]amino}quinazoline-6-carbonitrile] was 0.026 µM.

Values taken from US9932350B2, “Inhibitors of IRAK4 activity” (MERCK SHARP & DOHME CORP., priority 2014, dated 2018).
